Values of other authors in paper PMC6168745 (Diabetes, Obesity & Metabolism, 2016).

Key:
[1] = tested on: people with type 2 diabetes
[2] = tested on: participants with type 2 diabetes; details: + insulin glargine + metformin; CGM

Substance | MAGE, large amplitude of glycaemic excursions and within-day s.d. of mean daily glucose ([1]; once daily, comparative trials with insulin) | MAGE from baseline ([1]; small uncontrolled study of Japanese people with type 2 diabetes) | glucose CV and MAGE compared with prandial insulin [2]
liraglutide | significantly reduced | significantly reduced | –
exenatide [Twice‐daily exenatide] | – | – | significantly reduced
